Consider ten compounds from patent US20260207640A1, “Polyphenolic Boronates and Use Thereof” (The Medical College of Wisconsin, Inc., priority 2022, published 2026).

For one data set, the target named is T1, NOX2 (Homo sapiens, UniProt P04839).
T1 sequence (P04839 2-570 limits assumed): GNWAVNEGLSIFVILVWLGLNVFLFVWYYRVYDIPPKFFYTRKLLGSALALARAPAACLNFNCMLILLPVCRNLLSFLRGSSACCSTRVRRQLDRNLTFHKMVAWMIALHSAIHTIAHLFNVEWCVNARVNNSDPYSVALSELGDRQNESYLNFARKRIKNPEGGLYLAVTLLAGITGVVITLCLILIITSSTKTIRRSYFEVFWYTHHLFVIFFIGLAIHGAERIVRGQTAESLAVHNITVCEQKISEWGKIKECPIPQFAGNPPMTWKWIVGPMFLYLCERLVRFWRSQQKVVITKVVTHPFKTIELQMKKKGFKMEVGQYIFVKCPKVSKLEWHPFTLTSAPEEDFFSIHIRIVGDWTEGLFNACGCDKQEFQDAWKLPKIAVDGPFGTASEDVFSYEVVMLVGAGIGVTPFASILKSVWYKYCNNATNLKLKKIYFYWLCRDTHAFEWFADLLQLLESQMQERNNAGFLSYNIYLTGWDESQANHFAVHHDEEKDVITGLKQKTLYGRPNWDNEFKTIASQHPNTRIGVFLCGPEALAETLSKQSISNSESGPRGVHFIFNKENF
The data set can be described thus: Oxidant formation from NOX2. The note with it: preliminary results.

Data set [1] relates to pancreatic cancer (MiaPaCa-2) cells. Briefly: IncuCyte cell proliferation, pancreatic cancer cells. Format: cell-based, human. The note with it: comparison within pair. The protocol:
(§1) FIGS. 2A-2C show effects of HNK and HNK-B on the proliferation of glioblastoma (U87MG), pancreatic cancer (MiaPaCa-2) cells, and lung cancer (A549) cells. The effects of HNK and HNK-B on the proliferation of U87MG (FIG. 2A), MiaPaCa-2 (FIG. 2B), or A549 (FIG. 2C) cells were monitored in the IncuCyte Live-Cell Analysis system. The IncuCyte analyzer provides real-time updates on cell confluence based on segmentation of high definition-phase contrast images. Representative cell images are shown as segmentation masks, illustrated when control cells reached 90% confluence (vertical solid line). The half maximal inhibitory concentration (IC50) values for U87MG (FIG. 2A), MiaPaCa-2 (FIG. 2B), or A549 (FIG. 2C) cells were determined at the point at which control cells reached ~90% confluence (vertical solid line). Relative cell confluence (control is taken as 100%) is plotted against concentration. Dashed lines represent the fitting curves used to determine the IC50 values as indicated. Data shown are the mean±standard deviation (SD).
(§2) The effects of Mito-HNK and Mito-HNK-B on the proliferation of U87MG (FIG. 3A), MiaPaCa-2 (FIG. 3B), or A549 (FIG. 3C) cells were monitored in the IncuCyte Live-Cell Analysis system. The IncuCyte analyzer provides real-time updates on cell confluence based on segmentation of high definition-phase contrast images. Representative cell images are shown as segmentation masks, illustrated when control cells reached 90% confluence (vertical solid line). The IC50 values for U87MG (FIG. 3A), MiaPaCa-2 (FIG. 3B), or A549 (FIG. 3C) cells were determined at the point at which control cells reached ~90% confluence (vertical solid line). Relative cell confluence (control is taken as 100%) is plotted against concentration. Dashed lines represent the fitting curves used to determine the IC50 values as indicated. Data shown are the mean±SD. […]

In the next data set the test system is lung cancer (A549) cells. Briefly: IncuCyte cell proliferation, lung cancer cells. The note with it: comparison within pair. The format is cell-based, human. How it is done: as §1, §2
Data set [2] deals with glioblastoma (U87MG) cells. Briefly: IncuCyte cell proliferation, glioblastoma cells. The format is cell-based, human. To be noted: for antiproliferative effect, boronate versus non-boronated analog: comparison within pair (HNK/HNK-B, Mito-HNK/Mito-HNK-B, MGN/MGN-B, Mito-MGN/Mito-MGN-B). How it is done:
as §1
The effects of Mito-HNK and Mito-HNK-B on the proliferation of U87MG (FIG. 3A), MiaPaCa-2 (FIG. 3B), or A549 (FIG. 3C) cells were monitored in the IncuCyte Live-Cell Analysis system. The IncuCyte analyzer provides real-time updates on cell confluence based on segmentation of high definition-phase contrast images. Representative cell images are shown as segmentation masks, illustrated when control cells reached 90% confluence (vertical solid line). The IC50 values for U87MG (FIG. 3A), MiaPaCa-2 (FIG. 3B), or A549 (FIG. 3C) cells were determined at the point at which control cells reached ~90% confluence (vertical solid line). Relative cell confluence (control is taken as 100%) is plotted against concentration. Dashed lines represent the fitting curves used to determine the IC50 values as indicated. Data shown are the mean±SD.
FIGS. 4A-4B show effects of Mito-MGN, Mito-MGN-B, MGN, and MGN-B on the proliferation of glioblastoma cancer (U87MG) cells. The effects of Mito-MGN, Mito-MGN-B, MGN, and MGN-B on the proliferation of U87MG cells were monitored in the IncuCyte Live-Cell Analysis system. The IncuCyte analyzer provides real-time updates on cell confluence based on segmentation of high definition-phase contrast images. Representative cell images are shown as segmentation masks, illustrated in black when control cells reached 90% confluence. Full growth curves of Mito-MGN and Mito-MGN-B are shown in panel (FIG. 4A). The IC50 values were determined at the point at which control cells reached ~90% confluence. Relative cell confluence (control is taken as 100%) is plotted against concentration. Dashed lines in FIG. 4B represent the fitting curves used to determine the IC50 values as indicated for Mito-MGN and Mito-MGN-B (left panel) and for MGN and MGN-B (right panel). Data shown are the mean±SD.
(§3) The U87MG (ATCC Cat #HTB-14, human glioblastoma cancer cells), A549 (ATCC Cat #CCL-185, human lung cancer cells), and MiaPaCa-2 (ATCC Cat #CRL-1420, human pancreatic cancer cells) cell lines were purchased from the American Tissue Culture Collection (Manassas, VA, USA). The UACC-62 melanoma cell line was purchased from AddexBio (San Diego, CA; Cat #C0020003). All cell lines were regularly authenticated. All cell lines were grown at 37° C. in 5% carbon dioxide. The U87MG, A549, and UACC-62 cells were maintained in Roswell Park Memorial Institute Medium 1640 medium (Thermo Fisher Scientific, Waltham, MA, USA; Cat #11875) supplemented with 10% fetal bovine serum. MiaPaCa-2 cells were maintained in Dulbecco's Modified Eagle Medium (Thermo Fisher Scientific, Waltham, MA, USA; Cat #11965) and supplemented with 10% fetal bovine serum. All cells were stored in liquid nitrogen and used within 20 passages after thawing.
The IncuCyte Live-Cell Analysis System was used to continuously monitor cell proliferation, as described in earlier publications.

The conditions of data set [3]: not told; cited from earlier work.
In another data set the test system is lung tumors. To be noted: mice xenografts; cited from earlier work.
Data set [4] is described as follows: Oxidation of boronates by ONOO−, HPLC. The format is physicochemical. The note with it: in the presence of ONOO−. The protocol:
(§4) All samples were incubated at room temperature in aqueous solution containing phosphate buffer (0.1 M, pH 7.4) and DTPA (10 μM). Absorption traces recorded using UV absorption detection at 260 nm.
(§5) High-performance liquid chromatography (HPLC) analysis was performed using an Agilent 1200 apparatus equipped with ultraviolet-visible spectroscopy absorption and a mass spectrometry detector (single quadrupole).
(§6) In the studies on the reaction profile of ONOO oxidation of Mito-HNK-B and derivatives, 2 μL of sample was injected into the HPLC system equipped with a C18 column (Phenomenex, Kinetex Evo, 100×2.1 mm, 1.7 μm) equilibrated with 5% MeCN containing 0.1% (v/v) formic acid. The compounds were separated by a linear increase in MeCN phase concentration from 5% to 100% over 8 min and until 15 min at 100% MeCN using a flow rate of 0.21 mL/min. The peak areas detected by monitoring the absorption at 260 nm were used for the quantitation.
(§7) The stock solutions of oxidants (HOCl and H2O2) were prepared freshly before each experiment; their concentrations were determined by spectrophotometry by reacting nitrite with H2O2, using the procedure described previously. […] Immediately prior to each experiment, the concentration of ONOO was determined spectrally at 302 nm (ε=1.7× 103 M^−1 cm^−1) after dilution in 0.1 M sodium hydroxide to ~10 mM concentration. […]

A short description of data set [5]: Oxidation of boronates by H2O2, HPLC. Format: physicochemical. The protocol:
as §4, §5, §6, §7

Data set [6] is described as follows: Hydrolysis of pinacolate ester in aqueous phosphate buffer, HPLC. The format is physicochemical. The note with it: upon dilution in aqueous phosphate buffer. The protocol:
Stock solutions of HNK-B, HNK-B^2, and Mito-HNK-B were prepared in dimethyl sulfoxide at a 10 mM concentration and this solution was added directly to the buffer to obtain the desired concentration. […] Thus, the boronic acid species were tested with the oxidants. When studying HNK-B and Mito-HNK-B oxidations by HOCl, stock solutions (10 mM) in MeCN were added to the phosphate buffer (100 mM, pH 7.4) to obtain a final concentration of the probe of 500 μM. Dimethyl sulfoxide solvent was avoided due to known rapid quenching of HOCl by dimethyl sulfoxide.

In the next data set the test system is melanoma (UACC-62) cells. Briefly: IncuCyte cell proliferation, melanoma cells. Format: cell-based. The note with it: dose-dependent. How it is done:
FIGS. 5A-5B show effects of MGN and MGN-B on the proliferation of melanoma cancer (UACC-62) cells. The effects of MGN and MGN-B on the proliferation of UACC-62 cells were monitored in the IncuCyte Live-Cell Analysis system. The IncuCyte analyzer provides real-time updates on cell confluence based on segmentation of high definition-phase contrast images. The IC50 values were determined at the point at which control cells reached ~90% confluence. Relative cell confluence (control is taken as 100%) is plotted against concentration. Dashed lines in FIG. 5B represent the fitting curves used to determine the IC50 values as indicated for MGN and MGN-B. Data shown are the mean±SD.
as §3, with “MiaPaCa-2 cells were maintained in Dulbecco's Modified Eagle Medium (Thermo Fisher Scientific, Waltham, MA, USA; Cat #11965) and supplemented with 10% fetal bovine serum. All cells were stored in liquid nitrogen and used within 20 passages after thawing.” left out

Data set [7] has as its system arginase-1 and NOS-2 (or iNOS). The note with it: cited from earlier work.
Data set [8] concerns granulocytic-myeloid-derived suppressor cells (G-MDSCs) and regulatory T cells (Tregs). To be noted: cited from earlier work.
For the next data set, the system named is kidney. To be noted: in vivo; cited from earlier work.

Entries after “also recorded” stand apart in the source; their conditions may differ.

On to “mitochondria-targeted honokiol [Mito-HNK]”, for which the “oxidant formation from NOX2” value at NOX2 is reported as “inhibits oxidant formation”. The “antiproliferative effect, boronate versus non-boronated analog” value (in [1]; in the data set on lung cancer (A549) cells; in [2]) was “nearly the same” in each case. In addition, the blood-brain-barrier permeability result in data set [3] is given as “showed blood-brain-barrier permeability”. For the same compound, the “metastasis of lung tumors to the brain” value in the data set on lung tumors is “inhibited metastasis”.
For “mitochondria-targeted magnolol [Mito-MGN]”, the “antiproliferative potency of TPP+ conjugate compared with parent compounds MGN/MGN-B” value in data set [2] is listed as “increased their antiproliferative potencies”.
For the compound `C=CCc1ccc(O)c(-c2ccc(O)c(CC=C)c2)c1` [HNK, honokiol], the “antiproliferative effect, boronate versus non-boronated analog” value (in data set [1]; in the data set with lung cancer (A549) cells; in [2]) was “nearly the same” in each case.
For “Mitochondria-targeted magnolol boronate [Mito-MGN-B]”, in [2], the “antiproliferative potency of TPP+ conjugate compared with parent compounds MGN/MGN-B” value is given as “increased their antiproliferative potencies” and the “antiproliferative effect, boronate versus non-boronated analog” value is recorded as “slightly more potent”.
Consider “Mitochondria-targeted honokiol boronate [Mito-HNK-B]”, for which the “antiproliferative effect, boronate versus non-boronated analog” value is recorded as “nearly the same” in data set [1], “nearly the same” in the data set with lung cancer (A549) cells and “slightly more potent; also recorded: nearly the same” in data set [2]. Further, the “oxidation to HNK / Mito-HNK” value in data set [4] was “rapidly oxidized”. For the same compound, the “conversion of boronate to parent polyphenol” value in data set [5] (at higher concentrations of H2O2) is given as “increased”. Besides, the “conversion of boronate to parent polyphenol (HNK or Mito-HNK)” value in data set [5] (in the presence of H2O2 (500 μM), boronate 500 μM, phosphate buffer 0.1 M pH 7.4, room temperature) worked out at 37%. In [6], the “hydrolysis of pinacolate ester to the corresponding boronic acid” value was “fast hydrolysis”.
Take `C=CCc1ccc(O)c(-c2cc(CC=C)ccc2OCc2ccc(B3OC(C)(C)C(C)(C)O3)cc2)c1` [MGN-B, Magnolol boronate]: the effect on proliferation entry in the data set with melanoma (UACC-62) cells is on record as “decreasing the proliferation”. Also, in data set [2], the “antiproliferative effect, boronate versus non-boronated analog” value is listed as “increased the potency”.
Regarding `C=CCc1ccc(O)c(-c2cc(CC=C)ccc2O)c1` [MGN, magnolol], the effect on proliferation entry in the data set with melanoma (UACC-62) cells is listed as “decreasing the proliferation”.
Take `NC(=O)c1c(COC(=O)c2ccccc2O)no[n+]1[O-]` [AT38, 3-(aminocarbonyl) furoxan-4-yl) methyl salicylate]: in data set [7], the chemokine nitration result is on record as “mitigated chemokine nitration”; the “expression of arginase-1 and NOS-2 (or iNOS) in myeloid cells in the TME” value was “inhibited the expression”.
As for `O=C1C(OCCCCCCCCCC[P+](c2ccccc2)(c2ccccc2)c2ccccc2)=C(C2CCC(c3ccc(Cl)cc3)CC2)C(=O)c2ccccc21` (stereo not drawn) [Mito-ATO, Mitochondria-targeted atovaquone], the “G-MDSCs and Tregs in the TME” value in [8] (flow cytometry analysis) is on record as “significant decreases”. Further, the “T cell immune responses locally and in distant tumor sites” value in [8] (intratumoral injection into primary tumors, spontaneous tumor model) is reported as “triggered potent T cell immune responses”.
For “mitochondria-targeted carboxy-proxyl [Mito-CP]”, in the data set with kidney, the cisplatin-induced renal toxicity entry is “inhibited cisplatin-induced renal toxicity”.
